This passage reports IC50 results from patent US11578061B2, “Inhibitors of LRRK2 kinase” (Halia Therapeutics, Inc., priority 2021, dated 2023).

SMILES strings stand for the structures.

Chain of recombinant human LRRK2 (catalytic domain only [amino acids 970-2527], GST-tagged) (Q5S007 970-2527): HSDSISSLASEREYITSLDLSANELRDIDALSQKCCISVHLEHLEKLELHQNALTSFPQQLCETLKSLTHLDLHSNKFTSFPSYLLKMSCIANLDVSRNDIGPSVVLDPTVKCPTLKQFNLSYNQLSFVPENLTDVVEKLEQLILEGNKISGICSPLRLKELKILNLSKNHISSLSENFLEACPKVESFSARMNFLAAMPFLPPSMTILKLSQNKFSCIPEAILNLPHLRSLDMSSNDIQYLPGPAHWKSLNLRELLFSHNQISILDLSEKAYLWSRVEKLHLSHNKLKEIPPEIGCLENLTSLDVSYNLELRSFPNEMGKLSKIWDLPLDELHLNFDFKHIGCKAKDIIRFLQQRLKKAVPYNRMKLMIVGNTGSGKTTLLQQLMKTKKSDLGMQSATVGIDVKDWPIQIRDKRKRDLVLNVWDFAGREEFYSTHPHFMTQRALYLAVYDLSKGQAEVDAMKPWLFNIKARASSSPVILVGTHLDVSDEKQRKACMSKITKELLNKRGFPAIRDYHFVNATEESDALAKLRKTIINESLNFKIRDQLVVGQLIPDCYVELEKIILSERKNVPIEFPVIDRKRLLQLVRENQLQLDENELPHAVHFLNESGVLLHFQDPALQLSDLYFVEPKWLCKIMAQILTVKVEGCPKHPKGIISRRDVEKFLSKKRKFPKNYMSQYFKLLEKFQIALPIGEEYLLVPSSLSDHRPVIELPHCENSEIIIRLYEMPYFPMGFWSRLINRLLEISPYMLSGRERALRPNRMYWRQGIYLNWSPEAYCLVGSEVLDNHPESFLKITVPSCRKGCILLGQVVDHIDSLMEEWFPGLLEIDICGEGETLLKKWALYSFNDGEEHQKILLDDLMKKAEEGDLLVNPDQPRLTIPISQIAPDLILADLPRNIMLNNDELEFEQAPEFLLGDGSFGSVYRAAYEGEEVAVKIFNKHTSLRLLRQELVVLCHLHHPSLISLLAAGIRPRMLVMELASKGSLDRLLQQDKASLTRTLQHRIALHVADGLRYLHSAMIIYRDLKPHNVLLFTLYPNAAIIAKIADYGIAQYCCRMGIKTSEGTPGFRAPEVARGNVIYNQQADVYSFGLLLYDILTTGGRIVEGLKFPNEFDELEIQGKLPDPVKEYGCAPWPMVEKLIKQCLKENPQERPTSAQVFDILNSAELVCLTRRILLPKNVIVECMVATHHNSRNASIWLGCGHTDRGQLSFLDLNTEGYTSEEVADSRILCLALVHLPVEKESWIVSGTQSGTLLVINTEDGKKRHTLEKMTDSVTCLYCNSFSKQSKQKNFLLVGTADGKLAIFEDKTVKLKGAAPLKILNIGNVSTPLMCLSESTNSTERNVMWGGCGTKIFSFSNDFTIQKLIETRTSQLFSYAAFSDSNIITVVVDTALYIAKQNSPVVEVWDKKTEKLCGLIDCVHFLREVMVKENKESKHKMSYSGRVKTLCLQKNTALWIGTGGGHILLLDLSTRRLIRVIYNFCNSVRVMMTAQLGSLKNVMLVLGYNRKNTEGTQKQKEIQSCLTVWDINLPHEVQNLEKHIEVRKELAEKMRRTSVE

This experiment addresses recombinant human LRRK2 (catalytic domain only [amino acids 970-2527], GST-tagged) (Homo sapiens (Human), UniProt Q5S007). Briefly: LRRK2 Enzymatic Assay. The note with it: LRRKtide substrate, [32P]-ATP. It is filed as biochemical. The essentials:
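GST-tagged catalytic domain (aa 970-2527) at 30 nM with 20 μM LRRKtide in HEPES pH 7.5/MgCl2 buffer, 1% DMSO; compounds (10 μM to 0.5 nM) preincubated 20 min, then [32P]-ATP added for 2 h at room temperature. P81 phosphocellulose capture; activity as % of vehicle, IC50 by curve fit.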
For the molecule `CN[C@H]1CC[C@H](COc2nc(Nc3cn(C(C)(C)C#N)nc3C)ncc2OC)CC1` [Example 37, 2-(4-((5-methoxy-4-(((1R,4R)-4-(methylamino)cyclo-hexyl)methoxy)py-rimidin-2-yl)amino)-3-methyl-1H-pyrazol-1-yl)-2-methylpropanenitrile], the IC50 is below 50 nM.
As for `CC(=O)N[C@H]1CC[C@H](COc2nc(Nc3ccc(N4CCOCC4)cc3)ncc2F)CC1` [Example 82, N-((1R,4R)-4-(((5-fluoro-2-((4-morpholinophenyl)amino)pyrimidin-4-yl)oxy)methyl)cyclo-hexyl)acetamide], the figure is below 50 nM; as for `OCCn1ncc(Nc2ncc(F)c(OC[C@H]3CC[C@H](O)CC3)n2)c1Cl` [Example 240, (1R,4R)-4-(((2-((5-chloro-1-(2-hydroxyethyl)-1H-pyrazol-4-yl)amino)-5-fluoropyrimidin-4-yl)oxy)methyl)cyclohexan-1-ol], 50 to 200 nM.
The result for `CC(=O)NC1CCCC(COc2nc(Nc3ccc(N4C[C@@H](C)O[C@@H](C)C4)cc3)ncc2F)CC1` (stereo partly drawn) [Example 93, N-(4-(((2-((4-((2S,6R)-2,6-dimethylmorpholino)phenyl)amino)-5-fluoropyrimidin-4-yl)oxy)methyl)cyclo-heptyl)acetamide] reads below 50 nM; that for `Cc1c(Nc2ncc(Cl)c(OCC3CC(F)(F)C3)n2)cnn1C1CC(C#N)C1` (centres unmarked) [Example 159, 3-(4-((5-chloro-4-((3,3-difluorocyclobutyl)methoxy)pyrimidin-2-yl)amino)-5-methyl-1H-pyrazol-1-yl)cyclobutane-1-carbonitrile], below 50 nM.
Consider `Cc1nn(C)cc1Nc1ncc(F)c(OC[C@H]2CC[C@H](O)CC2)n1` [Example 229, (1R,4R)-4-(((2-((1,3-dimethyl-1H-pyrazol-4-yl)amino)-5-fluoropyrimidin-4-yl)oxy)methyl)cyclohexan-1-ol], for which the half-inhibitory concentration (IC50) lay in the range of 50 to 200 nM.
For `Cc1nn(C2CC(C#N)C2)cc1Nc1ncc(Cl)c(OCC2CCN(C)CC2)n1` (centres unmarked) [Example 59, 3-(4-((5-chloro-4-((1-methylpiperidin-4-yl)methoxy)pyrimidin-2-yl)amino)-3-methyl-1H-pyrazol-1-yl)cyclobutane-1-carbonitrile], the IC50 was 200 to 400 nM.
The result for `C[C@@H]1CN(c2ccc(Nc3ncc(F)c(OCC4CCC(OC(F)(F)F)CC4)n3)cc2)C[C@H](C)O1` (stereo partly drawn) [Example 283, N-(4-((2S,6R)-2,6-dimethylmorpholino)phenyl)-5-fluoro-4-((4-(trifluoromethoxy)cyclohexyl)methoxy)pyrimidin-2-amine] reads above 400 nM; that for `Cc1nn(C2CC(C#N)C2)cc1Nc1ncc(Cl)c(OCC2CC(F)(F)C2)n1` (centres unmarked) [Example 160, 3-(4-((5-chloro-4-((3,3-difluorocyclobutyl)methoxy)pyrimidin-2-yl)amino)-3-methyl-1H-pyrazol-1-yl)cyclobutane-1-carbonitrile], 50 to 200 nM; that for `Cc1nn(C2CC2)cc1Nc1ncc(F)c(OC[C@H]2CC[C@H](O)CC2)n1` [Example 231, (1R,4R)-4-(((2-((1-cyclopropyl-3-methyl-1H-pyrazol-4-yl)amino)-5-fluoropyrimidin-4-yl)oxy)methyl)cyclohexan-1-ol], 50 to 200 nM.
As for `Cc1nn(C(C)(C)C#N)cc1Nc1ncc(F)c(OCC2(F)CCNCC2)n1` [Example 25, 2-(4-((5-fluoro-4-((4-fluoropiperidin-4-yl)methoxy)pyrimidin-2-yl)amino)-3-methyl-1H-pyrazol-1-yl)-2-methylpropanenitrile], the figure is below 50 nM; as for `Fc1cnc(Nc2ccc(N3C4CCC3COC4)cc2)nc1OCC1CCNCC1(F)F` (centres unmarked) [Example 163, N-(4-(3-oxa-8-azabicyclo[3.2.1]octan-8-yl)phenyl)-4-((3,3-difluoropiperidin-4-yl)methoxy)-5-fluoropyrimidin-2-amine], 50 to 200 nM; as for `Cc1nn(C(C)C)cc1Nc1ncc(F)c(OC[C@H]2CC[C@H](NC(=O)C(F)(F)F)CC2)n1` [Example 211, 2,2,2-trifluoro-N-((1R,4R)-4-(((5-fluoro-2-((1-isopropyl-3-methyl-1H-pyrazol-4-yl)amino)pyrimidin-4-yl)oxy)methyl)cyclohexyl) acetamide], below 50 nM.
The result for `CC(=O)N[C@H]1CC[C@H](COc2nc(Nc3cnn(C4CCOCC4)c3)ncc2F)CC1` [Example 193, N-((1R,4R)-4-(((5-fluoro-2-((1-(tetrahydro-2H-pyran-4-yl)-1H-pyrazol-4-yl)amino)pyrimidin-4-yl)oxy)methyl)cyclo-hexyl)acetamide] reads below 50 nM.
With `O[C@H]1CC[C@H](COc2nc(Nc3cn(C4CC4)nc3Cl)ncc2F)CC1` [Example 239, (1R,4R)-4-(((2-((3-chloro-1-cyclopropyl-1H-pyrazol-4-yl)amino)-5-fluoropyrimidin-4-yl)oxy)methyl)cyclohexan-1-ol], the 50% inhibitory concentration (IC50) was in the range of 200 to 400 nM.
Regarding `COc1nn(C)cc1Nc1ncc(F)c(OC[C@H]2CC[C@H](O)CC2)n1` [Example 243, (1R,4R)-4-(((5-fluoro-2-((3-methoxy-1-methyl-1H-pyrazol-4-yl)amino)pyrimidin-4-yl)oxy)methyl)cyclohexan-1-ol], the IC50 lay in the range of 200 to 400 nM.
The result for `CN[C@H]1CC[C@H](COc2nc(Nc3ccc(N4CCOCC4)cc3)ncc2F)CC1` [Example 42, 5-fluoro-4-(((1R,4R)-4-(methylamino)cyclo-hexyl)methoxy)-N-(4-morpholinophenyl) pyrimidin-2-amine] reads below 50 nM; that for `C[C@@H]1CN(c2ccc(Nc3nccc(OCC4CCC(O)CC4)n3)cc2)C[C@H](C)O1` (stereo partly drawn) [Example 118, 4-(((2-((4-((2S,6R)-2,6-dimethylmorpholino)phenyl)amino)pyrimidin-4-yl)oxy)methyl)cyclohexan-1-ol], 50 to 200 nM; that for `CC(=O)NC12C3C4C1C1C2C3C41COc1ccnc(Nc2ccc(N3C[C@@H](C)O[C@@H](C)C3)cc2)n1` (stereo partly drawn) [Example 79, N-(4-(((2-((4-((2S,6R)-2,6-dimethylmorpholino)phenyl)amino)py-rimidin-4-yl)oxy)methyl)cuban-1-yl)acetamide], 200 to 400 nM.
For the molecule `COCCn1cc(Nc2ncc(F)c(OC[C@H]3CC[C@H](O)CC3)n2)cn1` [Example 226, (1R,4R)-4-(((5-fluoro-2-((1-(2-methoxyethyl)-1H-pyrazol-4-yl)amino)pyrimidin-4-yl)oxy)methyl)cyclohexan-1-ol], the IC50 lay in the range of 50 to 200 nM.
Turning to `Cc1nn(C(C)(C)C#N)cc1Nc1ncc(F)c(OCC2CCC(O)C2)n1` (centres unmarked) [Example 127, 2-(4-((5-fluoro-4-((3-hydroxycyclopentyl)methoxy)pyrimidin-2-yl)amino)-3-methyl-1H-pyrazol-1-yl)-2-methylpropanenitrile], the concentration for half-maximal inhibition (IC50) is below 50 nM.
The result for `CC(=O)NC12CCC(COc3ccnc(Nc4cn(C(C)(C)C#N)nc4C)n3)(CC1)CC2` [Example 78, N-(4-(((2-((1-(2-cyanopropan-2-yl)-3-methyl-1H-pyrazol-4-yl)amino)pyrimidin-4-yl)oxy)methyl)bicyclo [2.2.2]octan-1-yl)acetamide] reads 200 to 400 nM; that for `Cc1nn(C(C)(C)C#N)cc1Nc1ncc(F)c(OCC2CCC(OC(F)(F)F)CC2)n1` (racemic) [Example 284, 2-(4-((5-fluoro-4-((4-(trifluoromethoxy)cyclohexyl)methoxy)pyrimidin-2-yl)amino)-3-methyl-1H-pyrazol-1-yl)-2-methylpropanenitrile], 200 to 400 nM.

By IC50 is commonly meant the point on the concentration scale where inhibition reaches its midpoint.
